Experiments:
Format in all cases: cell-based
[1] = target: T1, hNaV1.6(N1768D) resurgent currents (Homo sapiens, UniProt Q9UQD0, N1768D); assay: Resurgent current inhibition
T1 construct: expression vector containing the full-length cDNA coding for specific human and mouse sodium channel α-subunit; expressed in transfected cells

[2] = target: T2, N1768D NaV1.6 persistent currents (Homo sapiens, UniProt Q9UQD0, N1768D); assay: Persistent current inhibition
T2 construct: expression vector containing the full-length cDNA coding for specific human and mouse sodium channel α-subunit; expressed in transfected cells; host or cells: Expi293F (transient, tetracycline-induced, pcDNA4/TO)
T2 sequence (Q9UQD0 whole entry N1768D): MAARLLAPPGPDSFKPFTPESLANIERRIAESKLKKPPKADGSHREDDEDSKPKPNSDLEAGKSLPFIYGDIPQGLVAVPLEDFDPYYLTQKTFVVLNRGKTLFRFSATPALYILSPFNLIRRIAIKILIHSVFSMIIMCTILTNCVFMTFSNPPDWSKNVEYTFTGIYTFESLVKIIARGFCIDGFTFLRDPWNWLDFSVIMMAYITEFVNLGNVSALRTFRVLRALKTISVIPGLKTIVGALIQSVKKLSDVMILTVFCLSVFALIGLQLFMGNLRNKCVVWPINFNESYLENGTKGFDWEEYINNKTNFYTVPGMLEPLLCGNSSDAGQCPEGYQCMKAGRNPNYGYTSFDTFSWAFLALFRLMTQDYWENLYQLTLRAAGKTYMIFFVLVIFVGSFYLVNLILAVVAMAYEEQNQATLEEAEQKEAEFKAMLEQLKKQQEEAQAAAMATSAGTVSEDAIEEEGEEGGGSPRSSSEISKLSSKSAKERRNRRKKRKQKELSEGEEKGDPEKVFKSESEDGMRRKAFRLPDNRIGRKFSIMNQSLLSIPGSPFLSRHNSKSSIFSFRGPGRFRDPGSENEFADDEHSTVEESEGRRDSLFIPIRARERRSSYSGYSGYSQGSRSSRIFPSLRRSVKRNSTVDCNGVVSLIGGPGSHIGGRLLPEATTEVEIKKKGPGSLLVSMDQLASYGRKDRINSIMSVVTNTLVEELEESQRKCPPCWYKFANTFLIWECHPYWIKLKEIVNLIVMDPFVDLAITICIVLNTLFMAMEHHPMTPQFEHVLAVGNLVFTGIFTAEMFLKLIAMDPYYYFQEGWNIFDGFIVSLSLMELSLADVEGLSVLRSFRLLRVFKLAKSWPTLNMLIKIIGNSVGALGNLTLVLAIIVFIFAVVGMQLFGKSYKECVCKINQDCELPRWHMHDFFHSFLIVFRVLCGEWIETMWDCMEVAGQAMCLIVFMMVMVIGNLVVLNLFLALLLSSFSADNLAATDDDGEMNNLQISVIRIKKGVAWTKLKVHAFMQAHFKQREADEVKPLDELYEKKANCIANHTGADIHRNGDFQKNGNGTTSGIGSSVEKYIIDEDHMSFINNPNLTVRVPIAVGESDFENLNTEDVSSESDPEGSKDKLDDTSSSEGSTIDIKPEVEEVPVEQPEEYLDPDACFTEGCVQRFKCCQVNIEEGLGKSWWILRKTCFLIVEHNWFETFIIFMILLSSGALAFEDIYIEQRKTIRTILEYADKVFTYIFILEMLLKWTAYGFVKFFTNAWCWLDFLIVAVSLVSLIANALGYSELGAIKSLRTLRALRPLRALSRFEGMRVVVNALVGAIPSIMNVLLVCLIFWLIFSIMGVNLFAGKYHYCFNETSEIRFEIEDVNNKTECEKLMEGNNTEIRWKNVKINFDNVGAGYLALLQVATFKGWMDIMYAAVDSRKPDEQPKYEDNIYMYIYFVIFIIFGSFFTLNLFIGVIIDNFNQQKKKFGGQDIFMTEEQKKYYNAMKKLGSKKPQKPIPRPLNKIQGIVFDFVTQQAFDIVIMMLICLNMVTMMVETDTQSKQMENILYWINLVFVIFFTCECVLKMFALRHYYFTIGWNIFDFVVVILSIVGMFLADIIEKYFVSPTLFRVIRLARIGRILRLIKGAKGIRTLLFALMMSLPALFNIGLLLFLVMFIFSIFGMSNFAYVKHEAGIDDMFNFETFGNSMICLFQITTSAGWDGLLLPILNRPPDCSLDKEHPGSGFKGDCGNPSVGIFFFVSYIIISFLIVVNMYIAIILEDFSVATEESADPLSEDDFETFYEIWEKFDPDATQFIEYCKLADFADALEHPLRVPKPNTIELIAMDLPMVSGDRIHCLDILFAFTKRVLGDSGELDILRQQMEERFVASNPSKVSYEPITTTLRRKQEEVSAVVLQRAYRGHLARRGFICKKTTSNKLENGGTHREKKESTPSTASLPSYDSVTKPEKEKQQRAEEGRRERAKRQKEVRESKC
T2 sequence (Q92913 1-192 isoform Q92913-2 partner): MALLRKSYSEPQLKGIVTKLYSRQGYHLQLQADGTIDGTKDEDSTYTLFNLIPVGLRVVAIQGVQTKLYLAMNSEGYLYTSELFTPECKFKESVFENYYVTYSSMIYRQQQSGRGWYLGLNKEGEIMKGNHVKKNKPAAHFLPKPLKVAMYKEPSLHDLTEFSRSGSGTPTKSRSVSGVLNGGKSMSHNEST
Description: Elevated persistent and or resurgent currents are believed to underlie or contribute to the pathology of many sodium channel related pathologies ([Mason et al., 2019]; [Pan and Cummins, 2020]; [Potet et al., 2020]; [Tidball et al., 2020]; [Zaman et al., 2019]). In most conditions, normal NaV1.6 channels inactivate rapidly and nearly completely after opening.
(§1) Inorm(CPD)=(ICPD−Icontrol)/(ITTX−Icontrol).

hNaV1.2 = target: T3, hNaV1.2 (Homo sapiens, UniProt Q99250); assay: Qube 384 automated patch-clamp, inactivated-state inhibition
T3 construct: expression vector containing the full-length cDNA coding for specific human and mouse sodium channel α-subunit; expressed in transfected cells
Description: (§2) All of the cell lines tested negative for mycoplasma.
as §1

hNaV1.3 = target: T4, hNaV1.3 (Homo sapiens, UniProt Q9NY46); assay: as above
T4 construct: expression vector containing the full-length cDNA coding for specific human and mouse sodium channel α-subunit; expressed in transfected cells
T4 sequence (Q9NY46 whole entry): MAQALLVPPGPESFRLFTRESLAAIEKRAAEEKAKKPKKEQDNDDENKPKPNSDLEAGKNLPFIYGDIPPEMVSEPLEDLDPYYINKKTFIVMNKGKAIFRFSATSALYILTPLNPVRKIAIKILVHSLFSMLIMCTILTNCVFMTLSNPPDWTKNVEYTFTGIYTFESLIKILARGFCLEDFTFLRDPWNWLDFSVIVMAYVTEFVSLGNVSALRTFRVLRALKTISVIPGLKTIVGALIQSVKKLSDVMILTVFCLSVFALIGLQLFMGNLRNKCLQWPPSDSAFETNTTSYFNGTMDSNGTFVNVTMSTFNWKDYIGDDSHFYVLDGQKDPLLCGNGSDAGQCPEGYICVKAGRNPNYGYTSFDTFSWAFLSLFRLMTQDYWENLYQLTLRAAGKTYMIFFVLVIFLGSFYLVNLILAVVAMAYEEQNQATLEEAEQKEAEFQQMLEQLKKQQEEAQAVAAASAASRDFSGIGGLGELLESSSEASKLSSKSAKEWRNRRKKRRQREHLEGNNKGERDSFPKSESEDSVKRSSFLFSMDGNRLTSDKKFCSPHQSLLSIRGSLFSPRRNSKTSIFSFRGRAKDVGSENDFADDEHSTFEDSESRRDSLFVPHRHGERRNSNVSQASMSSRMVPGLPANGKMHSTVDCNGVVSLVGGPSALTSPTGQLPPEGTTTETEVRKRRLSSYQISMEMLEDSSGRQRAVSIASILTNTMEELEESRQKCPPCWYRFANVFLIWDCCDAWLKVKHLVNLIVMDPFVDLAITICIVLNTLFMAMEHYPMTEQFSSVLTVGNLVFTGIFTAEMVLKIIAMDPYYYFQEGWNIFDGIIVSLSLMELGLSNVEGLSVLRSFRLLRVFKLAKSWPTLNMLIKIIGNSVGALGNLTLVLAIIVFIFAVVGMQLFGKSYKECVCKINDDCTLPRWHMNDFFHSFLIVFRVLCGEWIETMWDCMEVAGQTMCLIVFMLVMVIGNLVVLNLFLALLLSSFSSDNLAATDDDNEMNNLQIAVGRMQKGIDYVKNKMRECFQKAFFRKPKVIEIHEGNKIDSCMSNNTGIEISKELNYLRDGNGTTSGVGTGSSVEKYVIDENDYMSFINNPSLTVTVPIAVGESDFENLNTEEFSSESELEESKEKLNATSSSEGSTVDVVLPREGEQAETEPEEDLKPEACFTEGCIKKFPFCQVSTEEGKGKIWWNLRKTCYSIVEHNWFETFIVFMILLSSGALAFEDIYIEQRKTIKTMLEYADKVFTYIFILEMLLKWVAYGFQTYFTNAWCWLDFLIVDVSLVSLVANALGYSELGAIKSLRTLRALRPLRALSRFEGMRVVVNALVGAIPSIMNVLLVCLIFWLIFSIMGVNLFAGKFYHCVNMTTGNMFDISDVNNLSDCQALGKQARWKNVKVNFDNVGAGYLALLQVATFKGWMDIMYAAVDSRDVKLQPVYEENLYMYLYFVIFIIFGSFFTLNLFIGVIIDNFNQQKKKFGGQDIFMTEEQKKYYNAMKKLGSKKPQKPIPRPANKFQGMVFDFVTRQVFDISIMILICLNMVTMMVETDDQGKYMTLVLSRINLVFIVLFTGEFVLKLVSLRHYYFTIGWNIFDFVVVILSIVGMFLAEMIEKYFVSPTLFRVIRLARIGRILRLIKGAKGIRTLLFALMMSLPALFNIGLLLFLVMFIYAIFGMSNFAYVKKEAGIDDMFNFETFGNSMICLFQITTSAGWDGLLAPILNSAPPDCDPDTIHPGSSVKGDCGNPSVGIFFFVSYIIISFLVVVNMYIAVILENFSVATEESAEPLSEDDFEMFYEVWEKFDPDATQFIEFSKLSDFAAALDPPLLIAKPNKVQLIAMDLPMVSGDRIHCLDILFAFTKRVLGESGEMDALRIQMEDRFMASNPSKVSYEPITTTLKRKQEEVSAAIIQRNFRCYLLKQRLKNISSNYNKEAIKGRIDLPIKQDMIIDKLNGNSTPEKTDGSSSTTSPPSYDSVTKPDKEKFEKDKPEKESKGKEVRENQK
Description: as §2, §1

hNaV1.6 T767I = target: T5, hNaV1.6 T767I (Homo sapiens, UniProt Q9UQD0, T767I); assay: Automated patch-clamp, patient-identified variant in Expi293F cells
T5 construct: expression vector containing the full-length cDNA coding for specific human and mouse sodium channel α-subunit; expressed in transfected cells; host or cells: Expi293F (transient, tetracycline-induced, pcDNA4/TO)
T5 sequence (Q9UQD0 whole entry T767I): as the sequence (Q9UQD0 whole entry N1768D) above, with T767I, D1768N counted along it
Protocol: For studies of mutant channels, cDNA plasmids in pcDNA4/TO Mammalian Expression Vector were transiently transfected into Expi293F cells stably expressing human FHF2b and human SCN1B subunit (polyclonal) background using ExpiFectamine 293 Transfection Kits (Gibco,Thermo Fisher Scientific CAT #: A14524). Induction was achieved using Tetracycline (Sigma Aldrich). Transfected cells were used in automated patch-clamp experiments 24 hours postinduction.
as §1

T1 sequence (Q9UQD0 whole entry N1768D): as the sequence (Q9UQD0 whole entry N1768D) above
T1 sequence (Q92913 1-192 isoform Q92913-2 partner): as the sequence (Q92913 1-192 isoform Q92913-2 partner) above

Cc1cc(S(=O)(=O)Nc2cscn2)c(F)cc1N(C)[C@H]1CCN(Cc2ccccc2)C1 [NBI-921352]
N1768D current in (352)/(Vehicle), Resurgent, mean ([1]; -5 Log M): 0.94
N1768D current in (352)/(Vehicle), Resurgent, mean ([1]; -5.47716 Log M): 0.88
N1768D current in (352)/(Vehicle), Resurgent, mean ([1]; -5.95429 Log M): 0.86
N1768D current in (352)/(Vehicle), Resurgent, mean ([1]; -6.91009 Log M): 0.8
N1768D current in (352)/(Vehicle), Resurgent, mean ([1]; -7.38722 Log M): 0.57
N1768D current in (352)/(Vehicle), Resurgent, mean ([1]; -7.85387 Log M): 0.18
IC50 ([1]; NaVβ4 peptide 200 μM intracellular, read-out: apparent IC50 resurgent currents from N1768D channels): 37 nM
N1768D current in (352)/(Vehicle), Persistent, mean ([2]; -5 Log M): 0.93
N1768D current in (352)/(Vehicle), Persistent, mean ([2]; -5.47712 Log M): 0.92
N1768D current in (352)/(Vehicle), Persistent, mean ([2]; -5.95424 Log M): 0.91
N1768D current in (352)/(Vehicle), Persistent, mean ([2]; -6.43136 Log M): 0.87
N1768D current in (352)/(Vehicle), Persistent, mean ([2]; -6.90848 Log M): 0.63
N1768D current in (352)/(Vehicle), Persistent, mean ([2]; -7.38561 Log M): 0.44
N1768D current in (352)/(Vehicle), Persistent, mean ([2]; -7.86274 Log M): 0.21
N1768D current in (352)/(Vehicle), Persistent, mean ([2]; -8.33989 Log M): 0
IC50 ([2]; non-inactivating current 10ms after initiation of test pulse): 59 nM
hNav1.2 current (352)/(Vehicle), mean (hNaV1.2; -4 Log M): 0.88
hNav1.2 current (352)/(Vehicle), mean (hNaV1.2; -4.47713 Log M): 0.78
hNav1.2 current (352)/(Vehicle), mean (hNaV1.2; -4.95425 Log M): 0.6
hNav1.2 current (352)/(Vehicle), mean (hNaV1.2; -5 Log M): 0.66
hNav1.2 current (352)/(Vehicle), mean (hNaV1.2; -5.43133 Log M): 0.42
hNav1.2 current (352)/(Vehicle), mean (hNaV1.2; -5.47716 Log M): 0.44
hNav1.2 current (352)/(Vehicle), mean (hNaV1.2; -5.90833 Log M): 0.21
hNav1.2 current (352)/(Vehicle), mean (hNaV1.2; -5.95429 Log M): 0.14
hNav1.2 current (352)/(Vehicle), mean (hNaV1.2; -6.3851 Log M): 0.11
hNav1.2 current (352)/(Vehicle), mean (hNaV1.2; -6.86328 Log M): 0.04
hNav1.2 current (352)/(Vehicle), mean (hNaV1.2; -6.91009 Log M): 0.03
hNav1.2 current (352)/(Vehicle), mean (hNaV1.2; -7.33724 Log M): 0.01
hNav1.2 current (352)/(Vehicle), mean (hNaV1.2; -7.38722 Log M): 0
hNav1.2 current (352)/(Vehicle), mean (hNaV1.2; -7.85387 Log M): 0.01
hNav1.2 current (352)/(Vehicle), mean (hNaV1.2; -8.30103 Log M): 0.01
IC50 (hNaV1.2; Vh -45 mV, HEK-293): 6.9 µM
inhibition at 30 µM (hNaV1.3; 30 µM, NaV1.3, read-out: inhibition at the highest concentration tested): < 50%
hNaV1.3 current (352)/(Vehicle), mean (hNaV1.3; -4.52288 Log M): 0.17
hNaV1.3 current (352)/(Vehicle), mean (hNaV1.3; -5 Log M): 0.03
hNaV1.3 current (352)/(Vehicle), mean (hNaV1.3; -5.47716 Log M): 0.01
hNaV1.3 current (352)/(Vehicle), mean (hNaV1.3; -5.95429 Log M): -0.01
hNaV1.3 current (352)/(Vehicle), mean (hNaV1.3; -6.91009 Log M): 0.01
hNaV1.3 current (352)/(Vehicle), mean (hNaV1.3; -7.38722 Log M): 0.02
hNaV1.3 current (352)/(Vehicle), mean (hNaV1.3; -7.85387 Log M): -0.01
IC50 (hNaV1.3; Vh -45 mV, HEK-293): > 30 µM
IC50 (hNaV1.6 T767I): 31 nM
h1.6-T767I 145756, Mean (hNaV1.6 T767I; -5 LogM): 0.91
h1.6-T767I 145756, Mean (hNaV1.6 T767I; -5.47716 LogM): 0.92
h1.6-T767I 145756, Mean (hNaV1.6 T767I; -5.95429 LogM): 0.86
h1.6-T767I 145756, Mean (hNaV1.6 T767I; -6.4318 LogM): 0.86
h1.6-T767I 145756, Mean (hNaV1.6 T767I; -6.91009 LogM): 0.75
h1.6-T767I 145756, Mean (hNaV1.6 T767I; -7.38722 LogM): 0.58
h1.6-T767I 145756, Mean (hNaV1.6 T767I; -7.85387 LogM): 0.19
h1.6-T767I 145756, Mean (hNaV1.6 T767I; -8.33 LogM): 0.1
